Assay results from PubChem BioAssay (NCI).
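Step 1: Grow cells in 96-well plates. Step 2: Expose to compound for 48 hours at 5 concentrations. Step 3: Interpolate endpoints linearly; if unreached, use highest concentration. TGI is the concentration that stops growth completely.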

Experiments:
Experiment in all cases: inhibition of tumour cell growth, NCI panel, 48 h
DU-145 prostate = tested on: DU-145 prostate
M14 melanoma = tested on: M14 melanoma
MCF7 breast = tested on: MCF7 breast
A498 renal = tested on: A498 renal
PC-3 prostate = tested on: PC-3 prostate
SN12C renal = tested on: SN12C renal
HL-60(TB) leukemia = tested on: HL-60(TB) leukemia
ACHN renal = tested on: ACHN renal
A549 NSCLC = tested on: A549 NSCLC
SK-MEL-5 melanoma = tested on: SK-MEL-5 melanoma
MDA-N = tested on: MDA-N
NCI-H460 lung = tested on: NCI-H460 lung
IGROV1 ovarian = tested on: IGROV1 ovarian
EKVX NSCLC = tested on: EKVX NSCLC
OVCAR-5 ovarian = tested on: OVCAR-5 ovarian
HOP-62 NSCLC = tested on: HOP-62 NSCLC
RXF 393 renal = tested on: RXF 393 renal
SF-268 CNS = tested on: SF-268 CNS
OVCAR-4 ovarian = tested on: OVCAR-4 ovarian
SF-539 CNS = tested on: SF-539 CNS
MDA-MB-231 breast = tested on: MDA-MB-231 breast
HT29 colon = tested on: HT29 colon
SR leukemia = tested on: SR leukemia
NCI-H522 lung = tested on: NCI-H522 lung
LOX IMVI melanoma = tested on: LOX IMVI melanoma
SK-OV-3 ovarian = tested on: SK-OV-3 ovarian
HCT-116 colon = tested on: HCT-116 colon
SNB-19 CNS = tested on: SNB-19 CNS
HCC-2998 colon = tested on: HCC-2998 colon
MDA-MB-435 = tested on: MDA-MB-435
UACC-257 melanoma = tested on: UACC-257 melanoma
HCT-15 colon = tested on: HCT-15 colon
SNB-75 CNS = tested on: SNB-75 CNS
SK-MEL-2 melanoma = tested on: SK-MEL-2 melanoma
786-0 renal = tested on: 786-0 renal
TK-10 renal = tested on: TK-10 renal
NCI/ADR-RES ovarian = tested on: NCI/ADR-RES ovarian
MALME-3M melanoma = tested on: MALME-3M melanoma
U251 CNS = tested on: U251 CNS
MOLT-4 leukemia = tested on: MOLT-4 leukemia
CCRF-CEM leukemia = tested on: CCRF-CEM leukemia
UO-31 renal = tested on: UO-31 renal
NCI-H23 lung = tested on: NCI-H23 lung
K-562 leukemia = tested on: K-562 leukemia
HOP-92 NSCLC = tested on: HOP-92 NSCLC
T-47D breast = tested on: T-47D breast
KM12 colon = tested on: KM12 colon
OVCAR-8 ovarian = tested on: OVCAR-8 ovarian
SF-295 CNS = tested on: SF-295 CNS
SK-MEL-28 melanoma = tested on: SK-MEL-28 melanoma
CAKI-1 renal = tested on: CAKI-1 renal
SW-620 colon = tested on: SW-620 colon
NCI-H226 lung = tested on: NCI-H226 lung
BT-549 breast = tested on: BT-549 breast
UACC-62 melanoma = tested on: UACC-62 melanoma
RPMI-8226 leukemia = tested on: RPMI-8226 leukemia
OVCAR-3 ovarian = tested on: OVCAR-3 ovarian
COLO 205 colon = tested on: COLO 205 colon
HS 578T breast = tested on: HS 578T breast

Question: `O=C(/C=C/c1cc(O)c(O)cc1O)OCCc1ccccc1` was tested. Which TGI (DU-145 prostate) did it give?
Answer: The TGI was greater than 85.1 µM.

Question: What about the TGI (M14 melanoma) of the same compound?
Answer: The TGI was 32.7 µM.

Question: And the TGI (MCF7 breast)?
Answer: The TGI was 20.9 µM.

Question: And the TGI (A498 renal)?
Answer: Its TGI is 37.4 µM.

Question: And the TGI (PC-3 prostate)?
Answer: The TGI was 34.2 µM.

Question: And the TGI (SN12C renal)?
Answer: The TGI was 22.1 µM.

Question: And the TGI (HL-60(TB) leukemia)?
Answer: Its TGI is 3.73 µM.

Question: And the TGI (ACHN renal)?
Answer: Its TGI is 26.8 µM.

Question: And the TGI (A549 NSCLC)?
Answer: The TGI was greater than 100 µM.

Question: What about the TGI (SK-MEL-5 melanoma) of the same compound?
Answer: Its TGI is 38.4 µM.

Question: What about the TGI (MDA-N) of the same compound?
Answer: The TGI was 20.2 µM.

Question: What about the TGI (NCI-H460 lung) of the same compound?
Answer: Its TGI is greater than 100 µM.

Question: And the TGI (IGROV1 ovarian)?
Answer: The TGI was 40.5 µM.

Question: What about the TGI (EKVX NSCLC) of the same compound?
Answer: The TGI was greater than 95.6 µM.

Question: And the TGI (OVCAR-5 ovarian)?
Answer: The TGI was greater than 59.2 µM.

Question: And the TGI (HOP-62 NSCLC)?
Answer: Its TGI is 75.4 µM.

Question: And the TGI (RXF 393 renal)?
Answer: Its TGI is greater than 31.1 µM.

Question: What about the TGI (SF-268 CNS) of the same compound?
Answer: Its TGI is 38.6 µM.

Question: What about the TGI (OVCAR-4 ovarian) of the same compound?
Answer: Its TGI is 31.8 µM.

Question: And the TGI (SF-539 CNS)?
Answer: Its TGI is 44.5 µM.

Question: What about the TGI (MDA-MB-231 breast) of the same compound?
Answer: The TGI was 38.3 µM.

Question: And the TGI (HT29 colon)?
Answer: Its TGI is 41.6 µM.

Question: What about the TGI (SR leukemia) of the same compound?
Answer: The TGI was 30.6 µM.

Question: And the TGI (NCI-H522 lung)?
Answer: The TGI was 4.74 µM.

Question: What about the TGI (LOX IMVI melanoma) of the same compound?
Answer: Its TGI is 32 µM.

Question: What about the TGI (SK-OV-3 ovarian) of the same compound?
Answer: The TGI was 74.8 µM.

Question: And the TGI (HCT-116 colon)?
Answer: The TGI was greater than 58.4 µM.

Question: What about the TGI (SNB-19 CNS) of the same compound?
Answer: The TGI was greater than 100 µM.

Question: What about the TGI (HCC-2998 colon) of the same compound?
Answer: The TGI was greater than 100 µM.

Question: What about the TGI (MDA-MB-435) of the same compound?
Answer: Its TGI is 48.9 µM.

Question: And the TGI (UACC-257 melanoma)?
Answer: Its TGI is greater than 64.9 µM.

Question: What about the TGI (HCT-15 colon) of the same compound?
Answer: Its TGI is 54.7 µM.

Question: What about the TGI (SNB-75 CNS) of the same compound?
Answer: Its TGI is greater than 100 µM.

Question: And the TGI (SK-MEL-2 melanoma)?
Answer: The TGI was 47.2 µM.

Question: What about the TGI (786-0 renal) of the same compound?
Answer: The TGI was 18.6 µM.

Question: What about the TGI (TK-10 renal) of the same compound?
Answer: The TGI was 17.6 µM.

Question: What about the TGI (NCI/ADR-RES ovarian) of the same compound?
Answer: Its TGI is 71.2 µM.

Question: What about the TGI (MALME-3M melanoma) of the same compound?
Answer: The TGI was 28.2 µM.

Question: And the TGI (U251 CNS)?
Answer: The TGI was greater than 57.9 µM.

Question: And the TGI (MOLT-4 leukemia)?
Answer: The TGI was 11.7 µM.

Question: What about the TGI (CCRF-CEM leukemia) of the same compound?
Answer: The TGI was 7.17 µM.

Question: And the TGI (UO-31 renal)?
Answer: Its TGI is 19.7 µM.

Question: And the TGI (NCI-H23 lung)?
Answer: Its TGI is 53.1 µM.

Question: What about the TGI (K-562 leukemia) of the same compound?
Answer: The TGI was 6.89 µM.

Question: What about the TGI (HOP-92 NSCLC) of the same compound?
Answer: Its TGI is 20.5 µM.

Question: And the TGI (T-47D breast)?
Answer: Its TGI is 20.1 µM.

Question: And the TGI (KM12 colon)?
Answer: The TGI was greater than 100 µM.

Question: And the TGI (OVCAR-8 ovarian)?
Answer: Its TGI is 22.9 µM.

Question: And the TGI (SF-295 CNS)?
Answer: The TGI was greater than 82.3 µM.

Question: And the TGI (SK-MEL-28 melanoma)?
Answer: The TGI was 39.3 µM.

Question: And the TGI (CAKI-1 renal)?
Answer: The TGI was 78.3 µM.

Question: And the TGI (SW-620 colon)?
Answer: The TGI was 21.2 µM.

Question: What about the TGI (NCI-H226 lung) of the same compound?
Answer: The TGI was greater than 100 µM.

Question: What about the TGI (BT-549 breast) of the same compound?
Answer: The TGI was 62.1 µM.

Question: What about the TGI (UACC-62 melanoma) of the same compound?
Answer: Its TGI is 40.5 µM.

Question: And the TGI (RPMI-8226 leukemia)?
Answer: The TGI was greater than 46 µM.

Question: What about the TGI (OVCAR-3 ovarian) of the same compound?
Answer: Its TGI is 15.7 µM.

Question: And the TGI (COLO 205 colon)?
Answer: The TGI was 25.7 µM.

Question: What about the TGI (HS 578T breast) of the same compound?
Answer: The TGI was greater than 93.9 µM.

Question: Which results are given for `Nc1[nH]c(=S)nc2snnc12`?
Answer: TGI (DU-145 prostate): > 100 µM; TGI (MCF7 breast): > 100 µM; TGI (A498 renal): > 100 µM; TGI (PC-3 prostate): > 100 µM; TGI (SN12C renal): > 100 µM; TGI (HL-60(TB) leukemia): > 100 µM; TGI (ACHN renal): > 100 µM; TGI (A549 NSCLC): > 100 µM; TGI (SK-MEL-5 melanoma): > 100 µM; TGI (MDA-N): > 100 µM; TGI (NCI-H460 lung): > 100 µM; TGI (IGROV1 ovarian): > 100 µM; TGI (OVCAR-5 ovarian): > 100 µM; TGI (HOP-62 NSCLC): > 100 µM; TGI (RXF 393 renal): > 100 µM; TGI (SF-268 CNS): > 100 µM; TGI (SF-539 CNS): > 100 µM; TGI (MDA-MB-231 breast): > 100 µM; TGI (HT29 colon): > 100 µM; TGI (SR leukemia): > 100 µM; TGI (NCI-H522 lung): > 100 µM; TGI (LOX IMVI melanoma): > 100 µM; TGI (SK-OV-3 ovarian): > 100 µM; TGI (HCT-116 colon): > 100 µM; TGI (SNB-19 CNS): > 100 µM; TGI (HCC-2998 colon): > 100 µM; TGI (MDA-MB-435): > 100 µM; TGI (UACC-257 melanoma): > 100 µM; TGI (HCT-15 colon): > 100 µM; TGI (SNB-75 CNS): > 100 µM; TGI (SK-MEL-2 melanoma): > 100 µM; TGI (786-0 renal): > 100 µM; TGI (TK-10 renal): > 100 µM; TGI (NCI/ADR-RES ovarian): > 100 µM; TGI (MALME-3M melanoma): > 100 µM; TGI (MOLT-4 leukemia): > 100 µM; TGI (CCRF-CEM leukemia): > 100 µM; TGI (UO-31 renal): > 100 µM; TGI (NCI-H23 lung): > 100 µM; TGI (K-562 leukemia): > 100 µM; TGI (HOP-92 NSCLC): > 100 µM; TGI (T-47D breast): > 100 µM; TGI (KM12 colon): > 100 µM; TGI (OVCAR-8 ovarian): > 100 µM; TGI (SF-295 CNS): > 100 µM; TGI (SK-MEL-28 melanoma): > 100 µM; TGI (CAKI-1 renal): > 100 µM; TGI (SW-620 colon): > 100 µM; TGI (NCI-H226 lung): > 100 µM; TGI (BT-549 breast): > 100 µM; TGI (UACC-62 melanoma): > 100 µM; TGI (RPMI-8226 leukemia): > 100 µM; TGI (OVCAR-3 ovarian): > 100 µM; TGI (COLO 205 colon): > 100 µM; TGI (HS 578T breast): > 100 µM
